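96-well plates; 48 h exposure; 5 concentrations. Endpoints by linear interpolation between flanking doses. Not reached: highest tested concentration assigned. Here, GI50 denotes the concentration required for 50% inhibition of growth. TGI: concentration producing complete growth inhibition.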
Assays:
Experiment in all cases: NCI tumour cell line growth inhibition, 48 h
SR leukemia = system: SR leukemia
HCT-116 colon = system: HCT-116 colon
A498 renal = system: A498 renal
SK-MEL-2 melanoma = system: SK-MEL-2 melanoma
NCI-H23 lung = system: NCI-H23 lung
SNB-19 CNS = system: SNB-19 CNS
TK-10 renal = system: TK-10 renal
T-47D breast = system: T-47D breast
UO-31 renal = system: UO-31 renal
SK-OV-3 ovarian = system: SK-OV-3 ovarian
DU-145 prostate = system: DU-145 prostate
SK-MEL-28 melanoma = system: SK-MEL-28 melanoma
NCI-H226 lung = system: NCI-H226 lung
UACC-257 melanoma = system: UACC-257 melanoma
HT29 colon = system: HT29 colon
OVCAR-4 ovarian = system: OVCAR-4 ovarian
UACC-62 melanoma = system: UACC-62 melanoma
MOLT-4 leukemia = system: MOLT-4 leukemia
U251 CNS = system: U251 CNS
CCRF-CEM leukemia = system: CCRF-CEM leukemia
EKVX NSCLC = system: EKVX NSCLC
SN12C renal = system: SN12C renal
MDA-MB-231 breast = system: MDA-MB-231 breast
SNB-75 CNS = system: SNB-75 CNS
HL-60(TB) leukemia = system: HL-60(TB) leukemia
M14 melanoma = system: M14 melanoma
OVCAR-3 ovarian = system: OVCAR-3 ovarian
A549 NSCLC = system: A549 NSCLC
HCC-2998 colon = system: HCC-2998 colon
MDA-MB-435 = system: MDA-MB-435
NCI-H522 lung = system: NCI-H522 lung
CAKI-1 renal = system: CAKI-1 renal
HOP-92 NSCLC = system: HOP-92 NSCLC
COLO 205 colon = system: COLO 205 colon
NCI/ADR-RES ovarian = system: NCI/ADR-RES ovarian
LOX IMVI melanoma = system: LOX IMVI melanoma
HS 578T breast = system: HS 578T breast
SK-MEL-5 melanoma = system: SK-MEL-5 melanoma
SW-620 colon = system: SW-620 colon
BT-549 breast = system: BT-549 breast
IGROV1 ovarian = system: IGROV1 ovarian
SF-295 CNS = system: SF-295 CNS
OVCAR-5 ovarian = system: OVCAR-5 ovarian
KM12 colon = system: KM12 colon
786-0 renal = system: 786-0 renal
MALME-3M melanoma = system: MALME-3M melanoma
HCT-15 colon = system: HCT-15 colon
HOP-62 NSCLC = system: HOP-62 NSCLC
SF-539 CNS = system: SF-539 CNS
OVCAR-8 ovarian = system: OVCAR-8 ovarian
SF-268 CNS = system: SF-268 CNS
NCI-H460 lung = system: NCI-H460 lung
ACHN renal = system: ACHN renal
PC-3 prostate = system: PC-3 prostate

C=C1C(=O)O[C@H]2[C@H]1CC/C(COC(=O)NCc1ccc(Cn3c(=O)sn(CCCCC)c3=O)cc1)=C\CC[C@@]1(C)O[C@@H]21
GI50 (SR leukemia): 0.3 µM
TGI (SR leukemia): 2.18 µM
GI50 (HCT-116 colon): 1.73 µM
TGI (HCT-116 colon): 3.7 µM
GI50 (A498 renal): 2.91 µM
TGI (A498 renal): 10.1 µM
GI50 (SK-MEL-2 melanoma): 2.41 µM
TGI (SK-MEL-2 melanoma): 5.46 µM
GI50 (NCI-H23 lung): 1.94 µM
TGI (NCI-H23 lung): 4.1 µM
GI50 (SNB-19 CNS): 5.06 µM
TGI (SNB-19 CNS): 17.5 µM
GI50 (TK-10 renal): 1.96 µM
TGI (TK-10 renal): 3.66 µM
GI50 (T-47D breast): 1.75 µM
TGI (T-47D breast): 4 µM
GI50 (UO-31 renal): 1.46 µM
TGI (UO-31 renal): 2.8 µM
GI50 (SK-OV-3 ovarian): 8.77 µM
TGI (SK-OV-3 ovarian): 21.1 µM
GI50 (DU-145 prostate): 1.68 µM
TGI (DU-145 prostate): 3.04 µM
GI50 (SK-MEL-28 melanoma): 1.85 µM
TGI (SK-MEL-28 melanoma): 3.47 µM
GI50 (NCI-H226 lung): 10.7 µM
TGI (NCI-H226 lung): 27.6 µM
GI50 (UACC-257 melanoma): 1.57 µM
TGI (UACC-257 melanoma): 3.03 µM
GI50 (HT29 colon): 2.09 µM
TGI (HT29 colon): 3.89 µM
GI50 (OVCAR-4 ovarian): 1.62 µM
TGI (OVCAR-4 ovarian): 3.3 µM
GI50 (UACC-62 melanoma): 1.59 µM
TGI (UACC-62 melanoma): 3.08 µM
GI50 (MOLT-4 leukemia): 0.59 µM
TGI (MOLT-4 leukemia): 4.06 µM
GI50 (U251 CNS): 2.2 µM
TGI (U251 CNS): 4.93 µM
GI50 (CCRF-CEM leukemia): 0.364 µM
TGI (CCRF-CEM leukemia): 1.67 µM
GI50 (EKVX NSCLC): 1.85 µM
TGI (EKVX NSCLC): 5.59 µM
GI50 (SN12C renal): 1.71 µM
TGI (SN12C renal): 3.72 µM
GI50 (MDA-MB-231 breast): 1.72 µM
TGI (MDA-MB-231 breast): 3.46 µM
GI50 (SNB-75 CNS): 1.59 µM
TGI (SNB-75 CNS): 4.07 µM
GI50 (HL-60(TB) leukemia): 1.1 µM
TGI (HL-60(TB) leukemia): 4.12 µM
GI50 (M14 melanoma): 1.89 µM
TGI (M14 melanoma): 4.76 µM
GI50 (OVCAR-3 ovarian): 1.41 µM
TGI (OVCAR-3 ovarian): 2.75 µM
GI50 (A549 NSCLC): 8.82 µM
TGI (A549 NSCLC): 22.8 µM
GI50 (HCC-2998 colon): 3.55 µM
TGI (HCC-2998 colon): 11.1 µM
GI50 (MDA-MB-435): 1.71 µM
TGI (MDA-MB-435): 3.5 µM
GI50 (NCI-H522 lung): 1.59 µM
TGI (NCI-H522 lung): 3.1 µM
GI50 (CAKI-1 renal): 2.84 µM
TGI (CAKI-1 renal): 12.9 µM
GI50 (HOP-92 NSCLC): 1.38 µM
TGI (HOP-92 NSCLC): 3.01 µM
GI50 (COLO 205 colon): 1.78 µM
TGI (COLO 205 colon): 3.33 µM
GI50 (NCI/ADR-RES ovarian): 14.4 µM
TGI (NCI/ADR-RES ovarian): 46.5 µM
GI50 (LOX IMVI melanoma): 1.59 µM
TGI (LOX IMVI melanoma): 2.96 µM
GI50 (HS 578T breast): 2.79 µM
TGI (HS 578T breast): 14 µM
GI50 (SK-MEL-5 melanoma): 3.92 µM
TGI (SK-MEL-5 melanoma): 14.3 µM
GI50 (SW-620 colon): 1.31 µM
TGI (SW-620 colon): 2.85 µM
GI50 (BT-549 breast): 1.91 µM
TGI (BT-549 breast): 4.62 µM
GI50 (IGROV1 ovarian): 2.11 µM
TGI (IGROV1 ovarian): 4.8 µM
GI50 (SF-295 CNS): 12.5 µM
TGI (SF-295 CNS): 25.1 µM
GI50 (OVCAR-5 ovarian): 2.01 µM
TGI (OVCAR-5 ovarian): 4.91 µM
GI50 (KM12 colon): 2.23 µM
TGI (KM12 colon): 4.94 µM
GI50 (786-0 renal): 1.98 µM
TGI (786-0 renal): 4.23 µM
GI50 (MALME-3M melanoma): 1.61 µM
TGI (MALME-3M melanoma): 3.4 µM
GI50 (HCT-15 colon): 1.66 µM
TGI (HCT-15 colon): 3.23 µM
GI50 (HOP-62 NSCLC): 9.53 µM
TGI (HOP-62 NSCLC): 22.6 µM
GI50 (SF-539 CNS): 1.64 µM
TGI (SF-539 CNS): 3.2 µM
GI50 (OVCAR-8 ovarian): 2.26 µM
TGI (OVCAR-8 ovarian): 5.46 µM
GI50 (SF-268 CNS): 1.88 µM
TGI (SF-268 CNS): 3.97 µM
GI50 (NCI-H460 lung): 3.42 µM
TGI (NCI-H460 lung): 12.5 µM
GI50 (ACHN renal): 1.68 µM
TGI (ACHN renal): 3.14 µM
GI50 (PC-3 prostate): 1.92 µM
TGI (PC-3 prostate): 3.8 µM

Source: PubChem BioAssay (NCI)
